In PubChem BioAssay AID2060326 (Molecular Pharmacology Branch, DTP, NCI, 2025):
Values joined by “and” are separate entries in the source; they are usually repeats but may differ in a detail not shown here. Equal entries are not always repeated.

Test system: MDA-MB-468 multi-cell spheroids, viability
Assay: Anticancer human tumor MDA-MB-468 cell line growth inhibition [IpAb];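 also: spheroids exposed to agents for seven days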;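 as to viability, T/C: 100% = DMSO vehicle control viability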
Conditions: for viability, T/C: stronger effect = lower value
In short: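 Combinations with ipatasertib or abemaciclib were tested on tumour spheroids holding HUVEC (25%) and MSC (15%) alongside 60% malignant cells. Top concentration was at or near clinical Cmax (10 microM if undefined), descending in half-log steps.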

[1] = curve of first compound, second compound 0.01 µM
[2] = curve of first compound, second compound 0.0316 µM
[3] = curve of first compound, second compound 0.1 µM
[4] = curve of first compound, second compound 0.316 µM
[5] = curve of first compound, second compound 1 µM
[6] = second compound 0.01 µM, first compound 0.0316 µM
[7] = second compound 0.01 µM, first compound 0.1 µM
[8] = second compound 0.01 µM, first compound 0.316 µM
[9] = second compound 0.01 µM, first compound 1 µM
[10] = second compound 0.01 µM, first compound 3.16 µM
[11] = second compound 0.01 µM, first compound 10 µM
[12] = second compound 0.0316 µM, first compound 0.0316 µM
[13] = second compound 0.0316 µM, first compound 0.1 µM
[14] = second compound 0.0316 µM, first compound 0.316 µM
[15] = second compound 0.0316 µM, first compound 1 µM
[16] = second compound 0.0316 µM, first compound 3.16 µM
[17] = second compound 0.0316 µM, first compound 10 µM
[18] = second compound 0.1 µM, first compound 0.0316 µM
[19] = second compound 0.1 µM, first compound 0.1 µM
[20] = second compound 0.1 µM, first compound 0.316 µM
[21] = second compound 0.1 µM, first compound 1 µM
[22] = second compound 0.1 µM, first compound 3.16 µM
[23] = second compound 0.1 µM, first compound 10 µM
[24] = second compound 0.316 µM, first compound 0.0316 µM
[25] = second compound 0.316 µM, first compound 0.1 µM
[26] = second compound 0.316 µM, first compound 0.316 µM
[27] = second compound 0.316 µM, first compound 1 µM
[28] = second compound 0.316 µM, first compound 3.16 µM
[29] = second compound 0.316 µM, first compound 10 µM
[30] = second compound 1 µM, first compound 0.0316 µM
[31] = second compound 1 µM, first compound 0.1 µM
[32] = second compound 1 µM, first compound 0.316 µM
[33] = second compound 1 µM, first compound 1 µM
[34] = second compound 1 µM, first compound 3.16 µM
[35] = second compound 1 µM, first compound 10 µM

C=CC(=O)N1CCN(c2nc(=O)n(-c3c(C)ccnc3C(C)C)c3nc(-c4c(O)cccc4F)c(F)cc23)C(C)C1 (stereo not drawn) + CCN1CCN(Cc2ccc(Nc3ncc(F)c(-c4cc(F)c5nc(C)n(C(C)C)c5c4)n3)nc2)CC1
IC50 [1]: 7.47 µM | IC50 [2]: 7.21 µM | IC50 [3]: 6.74 µM | IC50 [4]: 6.44 µM | IC50 [5]: 7.15 µM | viability, T/C [6]: 109% | viability, T/C [7]: 117% | viability, T/C [8]: 110% | viability, T/C [9]: 113% | viability, T/C [10]: 93.2% | viability, T/C [11]: 35.1% | viability, T/C [12]: 98.6% | viability, T/C [13]: 90.9% | viability, T/C [14]: 108% | viability, T/C [15]: 91.7% | viability, T/C [16]: 79.8% | viability, T/C [17]: 38.3% | viability, T/C [18]: 101% | viability, T/C [19]: 106% | viability, T/C [20]: 100% | viability, T/C [21]: 110% | viability, T/C [22]: 97.6% | viability, T/C [23]: 24.8% | viability, T/C [24]: 103% | viability, T/C [25]: 108% | viability, T/C [26]: 116% | viability, T/C [27]: 103% | viability, T/C [28]: 83.7% | viability, T/C [29]: 29.2% | viability, T/C [30]: 84.2% | viability, T/C [31]: 73% | viability, T/C [32]: 81.8% | viability, T/C [33]: 82.7% | viability, T/C [34]: 74.7% | viability, T/C [35]: 39.6%

CCCS(=O)(=O)Nc1ccc(F)c(C(=O)c2c[nH]c3ncc(-c4ccc(Cl)cc4)cc23)c1F
viability, T/C (compound 0.0316 µM): 99.5% and 107% | viability, T/C (compound 0.1 µM): 99% and 91.6% | viability, T/C (compound 0.316 µM): 95% and 103% | viability, T/C (compound 1 µM): 100% and 109% | viability, T/C (compound 3.16 µM): 97.5% and 106% | viability, T/C (compound 10 µM): 66.3% and 75.8% | IC50 (curve of compound): > 10 µM

Cn1ncc(Cl)c1-c1cc(C(=O)NC(CN)Cc2cccc(F)c2)sc1Cl (stereo not drawn) + CCN1CCN(Cc2ccc(Nc3ncc(F)c(-c4cc(F)c5nc(C)n(C(C)C)c5c4)n3)nc2)CC1
IC50 [1]: 0.461 µM | IC50 [2]: 0.319 µM | IC50 [3]: 0.318 µM | IC50 [4]: 0.396 µM | IC50 [5]: 0.223 µM | viability, T/C [6]: 88.4% | viability, T/C [7]: 74.1% | viability, T/C [8]: 57.7% | viability, T/C [9]: 36.6% | viability, T/C [10]: 11.8% | viability, T/C [11]: 0.13% | viability, T/C [12]: 97.3% | viability, T/C [13]: 58.5% | viability, T/C [14]: 48% | viability, T/C [15]: 34.1% | viability, T/C [16]: 15.1% | viability, T/C [17]: 0.12% | viability, T/C [18]: 109% | viability, T/C [19]: 72% | viability, T/C [20]: 51.5% | viability, T/C [21]: 31.8% | viability, T/C [22]: 11.2% | viability, T/C [23]: 0.11% | viability, T/C [24]: 81.2% | viability, T/C [25]: 72.6% | viability, T/C [26]: 53.4% | viability, T/C [27]: 32.6% | viability, T/C [28]: 5.2% | viability, T/C [29]: 0.11% | viability, T/C [30]: 81.5% | viability, T/C [31]: 52.9% | viability, T/C [32]: 53.4% | viability, T/C [33]: 26% | viability, T/C [34]: 2.78% | viability, T/C [35]: 0.19%

CC1(C)CCC(CN2CCN(c3ccc(C(=O)NS(=O)(=O)c4ccc(NCC5CCOCC5)c([N+](=O)[O-])c4)c(Oc4cnc5[nH]ccc5c4)c3)CC2)=C(c2ccc(Cl)cc2)C1 + CCN1CCN(Cc2ccc(Nc3ncc(F)c(-c4cc(F)c5nc(C)n(C(C)C)c5c4)n3)nc2)CC1
IC50 [1]: 3.13 µM | IC50 [2]: 4.24 µM | IC50 [3]: 3.04 µM | IC50 [4]: 4.28 µM | IC50 [5]: 2.04 µM | viability, T/C [6]: 96.2% | viability, T/C [7]: 81.1% | viability, T/C [8]: 82.5% | viability, T/C [9]: 85% | viability, T/C [10]: 49.7% | viability, T/C [11]: 10.2% | viability, T/C [12]: 88.6% | viability, T/C [13]: 86.9% | viability, T/C [14]: 89.8% | viability, T/C [15]: 74.8% | viability, T/C [16]: 66.2% | viability, T/C [17]: 9.92% | viability, T/C [18]: 92.1% | viability, T/C [19]: 96.6% | viability, T/C [20]: 105% | viability, T/C [21]: 109% | viability, T/C [22]: 48.1% | viability, T/C [23]: 9.29% | viability, T/C [24]: 99.3% | viability, T/C [25]: 109% | viability, T/C [26]: 94.9% | viability, T/C [27]: 94.1% | viability, T/C [28]: 64.1% | viability, T/C [29]: 9.61% | viability, T/C [30]: 75.4% | viability, T/C [31]: 86.5% | viability, T/C [32]: 78.8% | viability, T/C [33]: 77.9% | viability, T/C [34]: 32.9% | viability, T/C [35]: 5.14%

CC(C)(C)c1cnc(CSc2cnc(NC(=O)C3CCNCC3)s2)o1
viability, T/C (compound 0.00949 µM): 90.5% and 95.1% | viability, T/C (compound 0.03 µM): 98.2% and 96.8% | viability, T/C (compound 0.0949 µM): 44.3% and 64.7% | viability, T/C (compound 0.3 µM): 0.55% and 0.39% | viability, T/C (compound 0.949 µM): 0.44% and 0.29% | viability, T/C (compound 3 µM): 0.51% and 0.39% | IC50 (curve of compound): 0.0832 µM and 0.123 µM

Cn1ncnc1[C@H]1c2n[nH]c(=O)c3cc(F)cc(c23)N[C@@H]1c1ccc(F)cc1
viability, T/C (compound 0.000316 µM): 121% and 90.6% | viability, T/C (compound 0.001 µM): 105% and 98.7% | viability, T/C (compound 0.00316 µM): 113% and 81% | viability, T/C (compound 0.01 µM): 103% and 93.2% | viability, T/C (compound 0.0316 µM): 84.2% and 83.9% | viability, T/C (compound 0.1 µM): 68.8% and 65.7% | IC50 (curve of compound): > 0.1 µM

CC(C)(C)c1cnc(CSc2cnc(NC(=O)C3CCNCC3)s2)o1 + CC(C)NCC(C(=O)N1CCN(c2ncnc3c2C(C)CC3O)CC1)c1ccc(Cl)cc1
IC50 [3]: 0.0691 µM | IC50 [4]: 0.0453 µM | IC50 [5]: 0.0369 µM | IC50 (curve of first compound, second compound 3.16 µM): < 0.00949 µM | IC50 (curve of first compound, second compound 10 µM): < 0.00949 µM | viability, T/C (second compound 0.1 µM, first compound 0.00949 µM): 110% | viability, T/C (second compound 0.1 µM, first compound 0.03 µM): 91.4% | viability, T/C (second compound 0.1 µM, first compound 0.0949 µM): 35% | viability, T/C (second compound 0.1 µM, first compound 0.3 µM): 0.3% | viability, T/C (second compound 0.1 µM, first compound 0.949 µM): 0.19% | viability, T/C (second compound 0.1 µM, first compound 3 µM): 0.32% | viability, T/C (second compound 0.316 µM, first compound 0.00949 µM): 73.9% | viability, T/C (second compound 0.316 µM, first compound 0.03 µM): 67.4% | viability, T/C (second compound 0.316 µM, first compound 0.0949 µM): 18.8% | viability, T/C (second compound 0.316 µM, first compound 0.3 µM): 0.27% | viability, T/C (second compound 0.316 µM, first compound 0.949 µM): 0.15% | viability, T/C (second compound 0.316 µM, first compound 3 µM): 0.27% | viability, T/C (second compound 1 µM, first compound 0.00949 µM): 62.2% | viability, T/C (second compound 1 µM, first compound 0.03 µM): 58.7% | viability, T/C (second compound 1 µM, first compound 0.0949 µM): 10% | viability, T/C (second compound 1 µM, first compound 0.3 µM): 0.2% | viability, T/C (second compound 1 µM, first compound 0.949 µM): 0.14% | viability, T/C (second compound 1 µM, first compound 3 µM): 0.24% | viability, T/C (second compound 3.16 µM, first compound 0.00949 µM): 41.5% | viability, T/C (second compound 3.16 µM, first compound 0.03 µM): 35.4% | viability, T/C (second compound 3.16 µM, first compound 0.0949 µM): 11.5% | viability, T/C (second compound 3.16 µM, first compound 0.3 µM): 0.23% | viability, T/C (second compound 3.16 µM, first compound 0.949 µM): 0.13% | viability, T/C (second compound 3.16 µM, first compound 3 µM): 0.31% | viability, T/C (second compound 10 µM, first compound 0.00949 µM): 21.3% | viability, T/C (second compound 10 µM, first compound 0.03 µM): 18.1% | viability, T/C (second compound 10 µM, first compound 0.0949 µM): 1.19% | viability, T/C (second compound 10 µM, first compound 0.3 µM): 0.32% | viability, T/C (second compound 10 µM, first compound 0.949 µM): 0.24% | viability, T/C (second compound 10 µM, first compound 3 µM): 0.65%

CC(C)NCC(C(=O)N1CCN(c2ncnc3c2C(C)CC3O)CC1)c1ccc(Cl)cc1 (stereo not drawn)
viability, T/C (compound 0.1 µM): 91.9% [middle of 13 runs] | viability, T/C (compound 1 µM): 54.4% [middle of 13 runs] | viability, T/C (compound 3.16 µM): 35.1% [middle of 13 runs] | viability, T/C (compound 10 µM): 18.4% [middle of 13 runs] | IC50 (compound alone, run of 05/18/2021): 1.25 µM [middle of 12 runs]

CC1(C)CCC(CN2CCN(c3ccc(C(=O)NS(=O)(=O)c4ccc(NCC5CCOCC5)c([N+](=O)[O-])c4)c(Oc4cnc5[nH]ccc5c4)c3)CC2)=C(c2ccc(Cl)cc2)C1
viability, T/C (compound 0.0316 µM): 111% and 107% | viability, T/C (compound 0.1 µM): 106% and 94.5% | viability, T/C (compound 0.316 µM): 102% and 89.2% | viability, T/C (compound 1 µM): 95.9% and 85.8% | viability, T/C (compound 3.16 µM): 73% and 52.9% | viability, T/C (compound 10 µM): 10% and 5.86% | IC50 (curve of compound): 4.77 µM and 3.52 µM
